Reference: patent US10392383B2, “3-(1H-benzo[d]imidazol-2-yl)-1H-pyrazolo[4,3-b]pyridines and therapeutic uses thereof” (Samumed, LLC, priority 2015, dated 2019)

Test system: primary human fibroblasts derived from IPF patients (LL29 cells) treated with TGF-β1
Experiment: Inhibition of the fibrotic process: αSMA staining in TGF-β1-treated LL29 fibroblasts
Type: cell-based
Details: Fibroblast; for EC50: 96 h, LL29 fibroblasts treated with TGF-β1 (20 ng/mL), 4 days, Table 4; for inhibition at 10 µM: LL29 fibroblasts treated with TGF-β1, Table 4, read-out: percent inhibition at 10 μM (given in parentheses for EC50 >10 μM)
Excerpt: Representative compounds were screened using primary human fibroblasts (derived from IPF patients) treated with TGF-β1 to determine their ability to inhibit the fibrotic process.
Human Fibroblast Cell Culture: Primary human fibroblasts derived from IPF patients (LL29 cells) [^1Xiaoqiu Liu, et. al., “Fibrotic Lung Fibroblasts Show Blunted Inhibition by cAMP Due to Deficient cAMP Response Element-Binding Protein Phosphorylation”, Journal of Pharmacology and Experimental Therapeutics (2005), 315(2), 678-687; ^2Watts, K. L., et. al., “RhoA signaling modulates cyclin D1 expression in human lung fibroblasts; implications for idiopathic pulmonary fibrosis”, Respiratory Research (2006), 7(1), 88] were obtained from American Type Culture Collection (ATCC) and expanded in F12 medium supplemented with 15% Fetal Bovine Serum and Penicillin/Streptomycin.
Compound Screening: Each compound was dissolved in DMSO as a 10 mM stock and used to prepare compound source plates. Serial dilution (1:2, 11-point dose-response curves from 10 μM to […]) and compound transfer was performed using the ECHO 550 (Labcyte, Sunnyvale, Calif.) into 384-well clear bottom assay plates (Greiner Bio-One) with appropriate DMSO backfill for a final DMSO concentration of 0.1%. LL29 cells are plated at 1,500 cells/well in 80 μL/well F12 medium supplemented with 1% Fetal Bovine Serum. One hour after addition of the cells, TGF-β1 (Peprotech; 20 ng/mL) was added to the plates to induce fibrosis (ref. 1 and 2 above). Wells treated with TGF-β1 and containing DMSO were used as controls. Cells were incubated at 37° C. and 5% CO2 for 4 days. Following incubation for 4 days, SYTOX green nucleic acid stain (Life Technologies [Thermo Fisher Scientific]) was added to the wells at a final concentration of 1 μM and incubated at room temperature for 30 min. Cells were then fixed using 4% formaldehyde (Electron Microscopy Sciences), washed 3 times with PBS followed by blocking and permeabilization using 3% Bovine Serum Albumin (BSA; Sigma) and 0.3% Triton X-100 (Sigma) in PBS. Cells were then stained with antibody specific to α-smooth muscle actin (αSMA; Abcam) (ref. 1 and 2 above) in 3% Bovine Serum Albumin (BSA; Sigma) and 0.3% Triton X-100 (Sigma) in PBS, and incubated overnight at 4° C. Cells were then washed 3 times with PBS, followed by incubation with Alexa Flor-647 conjugated secondary antibody (Life Technologies [Thermo Fisher Scientific]) and DAPI at room temperature for 1 hour. Cells were then washed 3 times with PBS and plates were sealed for imaging. αSMA staining was imaged by excitation at 630 nm and emission at 665 nm and quantified using the Compartmental Analysis program on the CellInsight CX5 (Thermo Scientific). Dead or apoptotic cells were excluded from analysis based on positive SYTOX green staining. % of total cells positive for αSMA were counted in each well and normalized to the average of 11 wells treated with TGF-β1 on the same plate using Dotmatics' Studies Software. The normalized averages (fold change over untreated) of 3 replicate wells for each compound concentration were used to create dose-responses curves and EC50 values were calculated using non-linear regression curve fit in the Dotmatics' Studies Software. For EC50 of >10 μM, the percent inhibition at 10 μM is provided.

Structure (SMILES)	EC50	inhibition at 10 µM
Cc1ncc(-c2ccc3[nH]nc(-c4nc5c(-c6ccoc6)cccc5[nH]4)c3n2)n1C [Compound 685, 5-(1,2-Dimethyl-1H-imidazol-5-yl)-3-(4-(furan-3-yl)-1H-benzo[d]imidazol-2-yl)-1H-pyrazolo[4,3-b]pyridine]	5040 nM	–
Cn1cc(-c2ccc3[nH]nc(-c4nc5c(-c6ccc7c(c6)OCO7)cccc5[nH]4)c3n2)c(CO)n1 [Compound 1152, (4-(3-(4-(Benzo[d][1,3]dioxol-5-yl)-1H-benzo[d]imidazol-2-yl)-1H-pyrazolo[4,3-b]pyridin-5-yl)-1-methyl-1H-pyrazol-3-yl)methanol]	> 10000 nM	0%
CN1CCN(c2cccc3[nH]c(-c4n[nH]c5ccc(-c6cncnc6)nc45)nc23)CC1 [Compound 251, 3-(4-(4-Methylpiperazin-1-yl)-1H-benzo[d]imidazol-2-yl)-5-(pyrimidin-5-yl)-1H-pyrazolo[4,3-b]pyridine]	2430 nM	–
NC1CN(c2cncc(-c3ccc4[nH]nc(-c5nc6c(-c7ccc(Cl)s7)cccc6[nH]5)c4n3)n2)C1 [Compound 1068, 1-(6-(3-(4-(5-Chlorothiophen-2-yl)-1H-benzo[d]imidazol-2-yl)-1H-pyrazolo [4,3-b]pyridin-5-yl)pyrazin-2-yl)azetidin-3-amine]	1710 nM	–
CN1CCN(c2cccc3[nH]c(-c4n[nH]c5ccc(-c6cnccn6)nc45)nc23)CC1 [Compound 648, 3-(4-(4-Methylpiperazin-1-yl)-1H-benzo[d]imidazol-2-yl)-5-(pyrazin-2-yl)-1H-pyrazolo[4,3-b]pyridine]	> 10000 nM	0%
Cc1cn(-c2cccc3[nH]c(-c4n[nH]c5ccc(C6=CCNCC6)nc45)nc23)cn1 [Compound 618, 3-(4-(4-Methyl-1H-imidazol-1-yl)-1H-benzo[d]imidazol-2-yl)-5-(1,2,3,6-tetrahydropyridin-4-yl)-1H-pyrazolo[4,3-b]pyridine]	> 10000 nM	7.7%
Cc1ncc(-c2ccc3[nH]nc(-c4nc5c(-c6cc(F)cc(NCCN(C)C)c6)cccc5[nH]4)c3n2)n1C [Compound 781, N^1-(3-(2-(5-(1,2-Dimethyl-1H-imidazol-5-yl)-1H-pyrazolo[4,3-b]pyridin-3-yl)-1H-benzo[d]imidazol-4-yl)-5-fluorophenyl)-N^2,N^2-dimethylethane-1,2-diamine]	917 nM	–
Oc1cncc(-c2ccc3[nH]nc(-c4nc5ccccc5[nH]4)c3n2)c1 [Compound 661, 5-(3-(1H-Benzo[d]imidazol-2-yl)-1H-pyrazolo[4,3-b]pyridin-5-yl)pyridin-3-ol]	> 10000 nM	30.3%
COc1cccc(-c2cccc3[nH]c(-c4n[nH]c5ccc(-c6cncc(NC(=O)CC(C)(C)C)c6)nc45)nc23)c1 [Compound 1006, N-(5-(3-(4-(3-methoxyphenyl)-1H-benzo[d]imidazol-2-yl)-1H-pyrazolo[4,3-b]pyridin-5-yl)pyridin-3-yl)-3,3-dimethylbutanamide]	> 10000 nM	32.2%
CN(C)CCNc1cc(F)cc(-c2cccc3[nH]c(-c4n[nH]c5ccc(-c6cncc(OCCN7CCCC7)c6)nc45)nc23)c1 [Compound 786, N^1-(3-Fluoro-5-(2-(5-(5-(2-(pyrrolidin-1-yl)ethoxy)pyridin-3-yl)-1H-pyrazolo[4,3-b]pyridin-3-yl)-1H-benzo[d]imidazol-4-yl)phenyl)-N^2,N^2-dimethylethane-1,2-diamine]	1770 nM	–
Cn1cc(-c2ccc3[nH]nc(-c4nc5c(-c6cccs6)cccc5[nH]4)c3n2)cn1 [Compound 700, 5-(1-Methyl-1H-pyrazol-4-yl)-3-(4-(thiophen-2-yl)-1H-benzo[d]imidazol-2-yl)-1H-pyrazolo[4,3-b]pyridine]	391 nM	–
O=C(CC1CCNCC1)Nc1cncc(-c2ccc3[nH]nc(-c4nc5c(-c6ccccn6)cccc5[nH]4)c3n2)c1 [Compound 593, 2-(Piperidin-4-yl)-N-(5-(3-(4-(pyridin-2-yl)-1H-benzo[d]imidazol-2-yl)-1H-pyrazolo[4,3-b]pyridin-5-yl)pyridin-3-yl)acetamide]	1370 nM	–
CS(=O)(=O)NCc1cc(F)cc(-c2cccc3[nH]c(-c4n[nH]c5ccc(-c6cncc(NC(=O)CC7CCNCC7)c6)nc45)nc23)c1 [Compound 769, N-(5-(3-(4-(3-Fluoro-5-(methylsulfonamidomethyl)phenyl)-1H-benzo[d]imidazol-2-yl)-1H-pyrazolo[4,3-b]pyridin-5-yl)pyridin-3-yl)-2-(piperidin-4-yl)acetamide]	3250 nM	–
Cn1cc(-c2ccc3[nH]nc(-c4nc5c(N6CCCCC6)cccc5[nH]4)c3n2)c(CO)n1 [Compound 1134, (1-Methyl-4-(3-(4-(piperidin-1-yl)-1H-benzo[d]imidazol-2-yl)-1H-pyrazolo [4,3-b]pyridin-5-yl)-1H-pyrazol-3-yl)methanol]	> 10000 nM	0%
Cc1ccc(-c2cccc3[nH]c(-c4n[nH]c5ccc(-c6cncc(OC7CCCCC7)c6)nc45)nc23)s1 [Compound 735, 5-(5-(Cyclohexyloxy)pyridin-3-yl)-3-(4-(5-methylthiophen-2-yl)-1H-benzo [d]imidazol-2-yl)-1H-pyrazolo[4,3-b]pyridine]	1130 nM	–
O=C(Nc1cncc(-c2ccc3[nH]nc(-c4nc5c(-c6ccncc6)cccc5[nH]4)c3n2)c1)C1CCCCC1 [Compound 135, N-(5-(3-(4-(pyridin-4-yl)-1H-benzo[d]imidazol-2-yl)-1H-pyrazolo[4,3-b]pyridin-5-yl)pyridin-3-yl)cyclohexanecarboxamide]	> 10000 nM	0%
c1cc(-c2ccoc2)c2nc(-c3n[nH]c4ccc(-c5cncc(OCCN6CCCC6)c5)nc34)[nH]c2c1 [Compound 690, 3-(4-(Furan-3-yl)-1H-benzo[d]imidazol-2-yl)-5-(5-(2-(pyrrolidin-1-yl)ethoxy)pyridin-3-yl)-1H-pyrazolo[4,3-b]pyridine]	2440 nM	–
CC(C)C(=O)Nc1cncc(-c2ccc3[nH]nc(-c4nc5c(-c6ccccc6F)cccc5[nH]4)c3n2)c1 [Compound 65, N-(5-(3-(4-(2-fluorophenyl)-1H-benzo[d]imidazol-2-yl)-1H-pyrazolo[4,3-b]pyridin-5-yl)pyridin-3-yl)isobutyramide]	4970 nM	–
Cc1ccc(-c2cccc3[nH]c(-c4n[nH]c5ccc(-c6cncc(NC(=O)C7CCCC7)c6)nc45)nc23)s1 [Compound 414, N-(5-(3-(4-(5-Methylthiophen-2-yl)-1H-benzo[d]imidazol-2-yl)-1H-pyrazolo [4,3-b]pyridin-5-yl)pyridin-3-yl)cyclopentanecarboxamide]	> 10000 nM	42.2%
CCCCC(=O)Nc1cncc(-c2ccc3[nH]nc(-c4nc5c(-c6ccccn6)cccc5[nH]4)c3n2)c1 [Compound 159, N-(5-(3-(4-(Pyridin-2-yl)-1H-benzo[d]imidazol-2-yl)-1H-pyrazolo[4,3-b]pyridin-5-yl)pyridin-3-yl)pentanamide]	948 nM	–
COc1cccc(-c2cccc3[nH]c(-c4n[nH]c5ccc(-c6cncc(O)c6)nc45)nc23)c1 [Compound 1030, 5-(3-(4-(3-Methoxyphenyl)-1H-benzo[d]imidazol-2-yl)-1H-pyrazolo[4,3-b]pyridin-5-yl)pyridin-3-ol]	915 nM	–
